The results in this text go back to ChEMBL document CHEMBL1201862, “PubChem BioAssay data set” (2004).

What all share (assay): NCI anticancer screen, dose series, 48 h
The subject of assay [1] is A498.
Assay [2] deals with BT-549.
Assay [3] deals with EKVX.
Assay [4] deals with IGROV-1.
Assay [5] has as its system KM12.
Assay [6] deals with MCF7.
The test system of assay [7] is MOLT-4.
Assay [8] has as its system NCI-H23.
In assay [9] the test system is NCI-H460.
The subject of assay [10] is OVCAR-8.
In assay [11] the test system is RPMI-8226.
Assay [12] concerns RXF 393.
Assay [13] concerns SF-295.
The test system of assay [14] is SK-MEL-2.
Assay [15] deals with SN12C.
Assay [16] has as its system SR.
The test system of assay [17] is TK-10.
Assay [18] deals with UACC-62.
Assay [19] deals with HCC 2998.

The structures appear in SMILES notation.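 These data come from cells grown in 96-well plates and exposed to compound for 48 hours at five concentrations. At the GI50, growth is halved.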 The source made the active and inactive calls. Rule as the data show it: active = GI50 up to about 1.1 µM and inactive = higher.

On to `Cc1cc(C)c2c(=O)n(CN3CC4Nc5ccccc5C4C3)sc2n1` (configuration not stated), for which the GI50 in [1] is 37.9 µM (inactive); in assay [2], 31.2 µM (inactive); in assay [3], 26.9 µM (inactive); in assay [4], > 100 µM (inactive); in assay [5], > 100 µM (inactive); in assay [6], 32.1 µM (inactive). Also, the GI50 is 29.6 µM (inactive) in assay [7]; 22 µM (inactive) in assay [8]; 20.9 µM (inactive) in assay [9]; 21.2 µM (inactive) in assay [10]; 11.3 µM (inactive) in [11]; 22.8 µM (inactive) in [12]. The GI50 in assay [13] was > 100 µM (inactive); in [14] it was 22.5 µM (inactive); in assay [15], 30.7 µM (inactive); in assay [16], 23.6 µM (inactive); in [17], 19.4 µM (inactive); in [18] it was 23.8 µM (inactive).
For `C=CCSc1nc2ccccc2c(=O)n1Cc1ccco1`, the GI50 in assay [1], in [2], in assay [3], in [19], in assay [4] and in assay [5] was > 100 µM (inactive) throughout. Moreover, the GI50 in assay [6] is 52.2 µM (inactive); in [8], 94.8 µM (inactive); in assay [9] it was 73.5 µM (inactive); in [10], > 100 µM (inactive); in assay [11] it was 37.4 µM (inactive); in assay [12], 35.6 µM (inactive). Also, the GI50 in [13] was > 100 µM (inactive); in assay [14] it was > 100 µM (inactive); in assay [15], > 100 µM (inactive); in [16] it was 47 µM (inactive); in assay [17] it was > 100 µM (inactive); in [18], > 100 µM (inactive).
For the molecule `O=C(O)CSC1=NCCN1`, the GI50 in assay [1], in assay [2], in [3], in [4], in assay [5] and in [6] was > 100 µM (inactive) in each case. For the same molecule, the GI50 in assay [7], in assay [8], in assay [9], in assay [10], in assay [11] and in assay [12] was > 100 µM (inactive) in each case. In addition, the GI50 in assay [13], in assay [14], in assay [15], in [16], in [17] and in assay [18] was > 100 µM (inactive) in each case.
For `NC(=O)C(c1ccccc1)N1OC2C(=O)N(c3cccc4ccccc34)C(=O)C2C1c1c2ccccc2c(Cl)c2ccccc12` (configuration not stated), the GI50 in assay [1] is 14.6 µM (inactive); in [2] it was 9.42 µM (inactive); in assay [3] it was 11.6 µM (inactive); in [4], 11.7 µM (inactive); in assay [5], 1.59 µM (inactive); in assay [6] it was 2.85 µM (inactive). The GI50 in assay [7] was 1.44 µM (inactive); in assay [8], 9.2 µM (inactive); in assay [9] it was 9.31 µM (inactive); in assay [10], 9.29 µM (inactive); in assay [12] it was 6.81 µM (inactive); in assay [13] it was 9.75 µM (inactive). Also, the GI50 in assay [14] is 8.69 µM (inactive); in [15], 8.47 µM (inactive); in assay [16], 1.21 µM (inactive); in [17], 10.4 µM (inactive); in assay [18], 6.93 µM (inactive).
`CC1=NN(C(=O)c2ccccc2O)C(=O)/C1=C/c1ccc([N+](=O)[O-])cc1`: the GI50 in [1] was 0.0419 µM (active); in [2], 0.328 µM (active); in [3], 1.2 µM (inactive); in [19], 1.85 µM (inactive); in assay [4] it was 0.0635 µM (active); in [5] it was 0.161 µM (active). For the same molecule, the GI50 in assay [6] is 0.726 µM (active); in assay [8] it was 0.177 µM (active); in [9], 0.114 µM (active); in assay [10], 0.203 µM (active); in [11], 1.88 µM (inactive); in [12], < 0.01 µM (active). Further, the GI50 in assay [13] was 0.131 µM (active); in [15], 0.372 µM (active); in assay [16], 0.473 µM (active); in [17], > 24.2 µM (inactive); in assay [18], 0.0603 µM (active).
For `COc1cc2c(c(OC)c1)/C(=C/Sc1ccccc1)C(=O)N(C(C)(C)C)C2`, the GI50 is 32.4 µM (inactive) in assay [1]; 26 µM (inactive) in assay [2]; 29.6 µM (inactive) in [3]; 37.8 µM (inactive) in assay [19]; 22.3 µM (inactive) in assay [4]; 24.3 µM (inactive) in assay [5]. Further, the GI50 was 29.8 µM (inactive) in assay [6]; 21.3 µM (inactive) in [7]; 26.3 µM (inactive) in assay [8]; 25.6 µM (inactive) in [10]; 26.1 µM (inactive) in [11]; 27.2 µM (inactive) in assay [13]. For the same molecule, the GI50 in assay [14] was 20.2 µM (inactive); in [15] it was 24 µM (inactive); in [16] it was 19.8 µM (inactive); in [17] it was 54.6 µM (inactive); in assay [18], 24.3 µM (inactive).
In the case of `CSC(=N/C=C/c1ccccc1)SC`, the GI50 in [1] was > 100 µM (inactive); in assay [2], > 100 µM (inactive); in [3] it was > 100 µM (inactive); in assay [4], 73.6 µM (inactive); in [5] it was > 100 µM (inactive); in [6] it was > 100 µM (inactive). Moreover, the GI50 in assay [7] was > 100 µM (inactive); in assay [8], > 100 µM (inactive); in assay [9], > 100 µM (inactive); in assay [10] it was > 100 µM (inactive); in [11], > 100 µM (inactive); in assay [12], 25.2 µM (inactive). The GI50 in assay [13], in assay [14], in assay [15], in assay [16] and in assay [18] was > 100 µM (inactive) in each case.
Regarding `C(=N\c1ccc(-c2nc3ccccc3[nH]2)cc1)/c1cccs1`, the GI50 in [1] is > 100 µM (inactive); in assay [2], 27.4 µM (inactive); in assay [3], > 100 µM (inactive); in [4], 19.8 µM (inactive); in assay [5], 58.1 µM (inactive); in assay [6] it was 8.91 µM (inactive). The GI50 in assay [7] is 29.9 µM (inactive); in [8], > 100 µM (inactive); in [9], > 100 µM (inactive); in [10], 49.9 µM (inactive); in assay [11], 52 µM (inactive); in assay [12] it was 56.6 µM (inactive). Further, the GI50 was 75.7 µM (inactive) in [13]; > 100 µM (inactive) in [14]; > 100 µM (inactive) in assay [15]; 45.3 µM (inactive) in assay [16]; > 100 µM (inactive) in assay [17].
`NS(=O)(=O)c1ccc(/N=N/c2cc3ccccc3c(C(=O)O)c2O)cc1`: the GI50 in assay [1] was > 53.6 µM (inactive); in assay [2], 99.1 µM (inactive); in assay [3] it was > 100 µM (inactive); in assay [4], 41.6 µM (inactive); in assay [5], 5.18 µM (inactive); in assay [6], 2.68 µM (inactive). Further, the GI50 in assay [7] was > 57 µM (inactive); in [8], > 47.8 µM (inactive); in assay [9], 10.5 µM (inactive); in [10] it was > 56.8 µM (inactive); in assay [11], > 100 µM (inactive); in assay [12], > 46.2 µM (inactive). Moreover, the GI50 in assay [13] is > 100 µM (inactive); in assay [14] it was > 45.1 µM (inactive); in assay [15], > 78.3 µM (inactive); in assay [16] it was 2.31 µM (inactive); in [17], > 47.4 µM (inactive); in [18], > 55.7 µM (inactive).
As for `Oc1nc2nnc(COc3ccc(Cl)cc3Cl)n2nc1Cc1ccccc1`, the GI50 in assay [1] is 31.3 µM (inactive); in [2] it was > 100 µM (inactive); in assay [3], > 100 µM (inactive); in assay [4], 24.2 µM (inactive); in [5], > 100 µM (inactive); in [6], > 100 µM (inactive). In addition, the GI50 in assay [7] was > 100 µM (inactive); in [8], 43 µM (inactive); in [9] it was 84.5 µM (inactive); in assay [10], 26.1 µM (inactive); in [11], > 100 µM (inactive); in assay [12], 21.5 µM (inactive). Also, the GI50 in [13] is 32.3 µM (inactive); in assay [14], > 100 µM (inactive); in [15], 57.1 µM (inactive); in [16] it was 36.7 µM (inactive); in assay [17], 34.6 µM (inactive).
With `Cc1ccc2occ/c(=N\Nc3ccccc3)c2c1`, the GI50 in assay [1] was 76.6 µM (inactive); in assay [2], > 100 µM (inactive); in assay [3] it was 18.6 µM (inactive); in assay [19], > 100 µM (inactive); in assay [4], 7.83 µM (inactive); in assay [5] it was 12.7 µM (inactive). The GI50 in assay [6] was 40.2 µM (inactive); in assay [8], 28.1 µM (inactive); in [9] it was 56.9 µM (inactive); in assay [10] it was 72.9 µM (inactive); in assay [11], 25.1 µM (inactive); in assay [12], 21.8 µM (inactive). The GI50 in assay [13] was 32.2 µM (inactive); in assay [14] it was > 100 µM (inactive); in assay [15], > 100 µM (inactive); in assay [16], 37.8 µM (inactive); in assay [17] it was > 100 µM (inactive); in assay [18], > 100 µM (inactive).
